# Measurements from patent US6974797B2, “Cross-linked glycopeptide-cephalosporin antibiotics” (Theravance, Inc., priority 2001, dated 2005).
# What was measured:
# MRSA 33591 [1] = experiment: Time-kill assay, MRSA 33591; type: cell-based, Staphylococcus aureus
# Method: (§1) This time-kill assay is a method for measuring the rate of bactericidal activity of a test compound. […] A rapid time-kill is desirable to quickly prevent bacterial colonization and reduce host tissue damage.
# (§2) Bacteria were diluted in prewarmed media in shake flasks and incubated with shaking (200 rpm, 35° C.). At 0, 1, 4, and 24 hours samples were withdrawn from the flasks and bacteria were enumerated by plate counting. Subsequent to the initial sampling, a compound to be assayed was added to the shake flask culture. Plate counts at these intervals previous to and following addition of the compound were expressed graphically in a time-kill curve.
# MSSA 13709 = experiment: Time-kill assay, MSSA 13709; type: cell-based, Staphylococcus aureus
# Method: as §1, §2
# [2] = system: Methicillin-resistant S. aureus (MRSA); experiment: Minimal inhibitory concentration (MIC90), broth microdilution, MRSA strains; type: cell-based, Staphylococcus aureus
# Method: (§3) Minimal inhibitory concentration (MICs) assays were performed using the broth microdilution method set forth in NCCLS guidelines (see, NCCLS. 2000. Methods for Dilution Antimicrobial Susceptibility Tests for Bacteria That Grow Aerobically; Approved Standard—Fifth Ed., Vol. 20, No. 2). Bacterial strains were obtained from the American Type Tissue Culture Collection (ATCC), Stanford University Hospital (SU), Kaiser Permanente Regional Laboratory in Berkeley (KPB), Massachusetts General Hospital (MGH), the Centers for Disease Control (CDC), the San Francisco Veterans' Administration Hospital (SFVA) or the University of California San Francisco Hospital (UCSF). Vancomycin-resistant enterococci were phenotyped as Van A or Van B based on their sensitivity to teicoplanin. Some vancomycin-resistant enterococci that had been genotyped as Van A, Van B, Van C1 or Van C2 were also obtained from the Mayo Clinic.
# (§4) In this assay, cryopreserved bacterial cultures of reference and clinical strains were streaked for isolation on appropriate agar medium (i.e., Trypticase Soy Agar, Trypticase Soy Agar with defibrinated sheep erthrocytes, Brain Heart Infusion Agar, Chocolate Agar). Following incubation to allow formation of colonies, these plates were sealed with parafilm and stored refrigerated for up to two weeks. […] The MIC was read visually as the lowest concentration well with no bacterial growth. […]
# [3] = system: Methicillin-resistant S. epidermitis (MRSE) and other coagulase-negative staphylococci; experiment: Minimal inhibitory concentration (MIC90), broth microdilution, MRSE and other coagulase-negative staphylococci; type: cell-based, Staphylococcus epidermidis
# Method: as §3, §4
# MRSA 33591 [4] = experiment: In vivo efficacy in neutropenic mice (thigh infection); design: species or system Staphylococcus aureus; conditions: neutropenic male CD-1 mice, MRSA 33591 thigh infection, iv, 24 hours post-treatment
# Method: Animals (male CD-1 mice, 20-30 g) were acquired from Charles Rivers Laboratories (Gilroy, Calif.) and allowed access to food and water ad libitum. Neutropenia was induced via 200 mg/kg intraperitoneal (IP) injection of cyclophosphamide given four and two days prior to the inoculation of bacteria.
# The organism used was either a susceptible or resistant strain of clinically relevant gram positive pathogens, such as methicillin-susceptible Staphylococcus aureus (MSSA 13709) and methicillin-resistant Staphylococcus aureus (MRSA 33591). The bacterial inoculum concentration was ˜10^6 CFU/mL. Animals were lightly anesthetized with isoflurane and […] of the bacterial inoculum was injected into the anterior thigh. One hour after the inoculation, animals were dosed intravenously with vehicle or the appropriate dose of the test compound. At 0 hours and 24 hours post-treatment, the animals were euthanized (CO2 asphyxiation) and the anterior and posterior thigh collected aseptically. The thigh was placed into 10 mL sterile saline and homogenized. Dilutions of the homogenate were plated onto triptic soy agar plates which were incubated overnight. The number of bacterial colonies on a given plate was multiplied by the dilution factor, divided by the thigh weight (in grams) and expressed as log CFU/g. […]
# [5] = system: methicillin-resistant S. aureus strains; experiment: Minimal inhibitory concentration (MIC), broth microdilution, individual MRSA strains; type: cell-based, Staphylococcus aureus
# Method: as §3
# In this assay, cryopreserved bacterial cultures of reference and clinical strains were streaked for isolation on appropriate agar medium (i.e., Trypticase Soy Agar, Trypticase Soy Agar with defibrinated sheep erthrocytes, Brain Heart Infusion Agar, Chocolate Agar). Following incubation to allow formation of colonies, these plates were sealed with parafilm and stored refrigerated for up to two weeks. For preparation of assay inocula and to ensure low variability, several colonies from a bacterial isolate cultured on the agar plates were pricked with an inoculating loop and aseptically transferred to Mueller-Hinton Broth (supplemented with divalent cations to required levels based on manufacturer's certification). The broth culture was grown overnight at 35° C., diluted in fresh prewarmed broth and grown to log phase; this is equivalent to a 0.5 MacFarland standard or 1×10^8 colony forming units per milliliter (CFU/mL). Not all cell suspensions, due to species variability, contained 1×10^8 CFU/mL when turbidity is equivalent to the MacFarland standard, therefore acceptable adjustments (based on NCCLS guidelines) were made in dilutions of different bacterial strains. […] The plates were then incubated 18-24 hours at 35° C. The MIC was read visually as the lowest concentration well with no bacterial growth. Bacterial growth is defined as more than three pinpoint colonies, a button of precipitated cells larger than 2 mm in diameter, or obvious turbidity.
# Strains routinely tested in the initial screen included methicillin-sensitive Staphylococcus aureus (MSSA), methicillin-resistant Staphylococcus aureus (MRSA), Staphylococcus aureus producing penicillinase, methicillin-sensistive Staphylococcus epidermidis (MSSE), methicillin-resistant Staphylococcus epidermidis (MRSE), vancomycin-sensitive Enterococcus faecium (EFMVS), vancomycin-sensitive Enterococcus faecalis (EFSVS), vancomycin-resistant Enterococcus faecium also resistant to teicoplanin (EFMVR Van A), vancomycin-resistant Enterococcus faecium sensistive to teicoplanin (EFMVR Van B), vancomycin-resistant Enterococcus faecalis also resistant to teicoplanin (EFSVR Van A), vancomycin-resistant Enterococcus faecalis sensitive to teicoplanin (EFSVR Van B), penicillin-sensitive Streptococcus pneumoniae (PSSP) and penicillin-resistant Streptococcus pneumoniae (PSRP). Because of the inability of PSSP and PSRP to grow well in Mueller-Hinton broth, MICs with those strains were determined using either TS broth supplemented with defibrinated blood or Haemophilus test medium.
# [6] = 5 wt. % dextrose buffer solution, titrated to pH 3, duplicate sample preparations
# Method: The aqueous solubility of a compound of this invention was determined using the following procedure. A 5 wt. % dextrose buffer solution at pH 2.2 was prepared by adding 1 mL of 1 N hydrochloric acid (Aldrich) to 99 mL of a 5 wt. % aqueous dextrose solution (Baxter).
# A 1 mg/mL stock solution for calibration standards was then prepared by dissolving 1 mg of the test compound in 1 mL of DMSO. This solution was vortexed for 30 seconds and then sonicated for 10 minutes. The stock solution was then diluted with water to prepare calibration standards having the following concentrations: 50, 125, 250, 375 and 500 ug/mL.
# Each test compound (30 mg) was weighed into a Millipore non-sterile, Ultrafree-MC 0.1 um filter unit (Millipore UFC30VVOO) and a magnetic stir bar was added to each unit. The 5 wt. % dextrose buffer solution (750 uL) was then added to each unit and these mixtures were vortexed for 5 minutes. The filter units were then placed in an Eppendorf tube rack and the tube rack was placed on top of a magnetic stirrer. […]
# The calibration standards and the test samples were analyzed by reverse-phase HPLC using the following conditions:
# The solubility of each test sample was calculated by comparing the peak area of the test sample to the calibration curve and multiplying by the dilution factor.
SMILES,MIC ([5]; MRSA 33591),MIC ([5]; MRSA MED-84),MIC ([5]; MRSA MED-85),MIC ([5]; MRSA MED-86),MIC ([5]; MRSA MED-87),MIC ([5]; MRSA MED-88),MIC ([5]; MRSA MED-89),MIC ([5]; MRSA MED-103),MIC ([5]; MRSA MED-104) [µg/mL],MIC ([5]; MRSA MED-107),MIC ([5]; MRSA MED-110) [µg/mL],MIC ([5]; MRSA MED-572),other results
"CN[C@H](CC(C)C)C(=O)N[C@H]1C(=O)N[C@@H](CC(N)=O)C(=O)N[C@H]2C(=O)N[C@H]3C(=O)N[C@H](C(=O)N[C@H](C(=O)O)c4cc(O)cc(O)c4-c4cc3ccc4O)[C@H](O)c3ccc(c(Cl)c3)Oc3cc2cc(c3O[C@@H]2O[C@H](CO)[C@@H](O)[C@H](O)[C@H]2O[C@H]2C[C@](C)(N)[C@H](O)[C@H](C)O2)Oc2ccc(cc2Cl)[C@H]1O [Vancomycin, vancomycin, reference compound]",,,,,,,,,,,,,"bactericidal concentration (≧3 log decrease in bacterial cell numbers) (MRSA 33591 [1]; MRSA 33591, in 24 hours): 4 μg/mL; bactericidal concentration (≧3 log decrease in bacterial cell numbers) (MSSA 13709; MSSA 13709, in 24 hours): 4 μg/mL; MIC90 ([2]; Staphylococcus aureus, read-out: MIC90 (minimum inhibitory concentration for 90% of strains tested)): 3 µg/mL; MIC90 ([3]; Staphylococcus epidermidis, MRSE, read-out: MIC90 (minimum inhibitory concentration for 90% of strains tested)): 4 µg/mL; ED50 (MRSA 33591 [4]; Staphylococcus aureus, read-out: ED50 (dose required to produce 50% of the maximum reduction in thigh titre)): 9 mg/kg"
CNC(CC(C)C)C(=O)NC1C(=O)NC(CC(N)=O)C(=O)NC2C(=O)NC3C(=O)NC(C(=O)NC(C(=O)NCCCON=C(C(=O)NC4C(=O)N5C(C(=O)[O-])=C(C[n+]6ccccc6)CSC45)c4nc(N)sc4Cl)c4cc(O)cc(O)c4-c4cc3ccc4O)C(O)c3ccc(c(Cl)c3)Oc3cc2cc(c3OC2OC(CO)C(O)C(O)C2OC2CC(C)(N)C(O)C(C)O2)Oc2ccc(cc2Cl)C1O.Cl.Cl.Cl (centres unmarked) [Compound 1],≦0.1 μg/mL,≦0.1 μg/mL,≦0.1 μg/mL,≦0.1 μg/mL,≦0.1 μg/mL,≦0.1 μg/mL,≦0.1 μg/mL,≦0.1 μg/mL,0.10,≦0.1 μg/mL,0.20,≦0.1 μg/mL,"bactericidal concentration (≧3 log decrease in bacterial cell numbers) (MRSA 33591 [1]; MRSA 33591, in 4 hours): ≤ 1 μg/mL; aqueous solubility [6]: > 47.9 mg/mL; bactericidal concentration (≧3 log decrease in bacterial cell numbers) (MSSA 13709; MSSA 13709, in 4 hours): ≤ 1 μg/mL; MIC90 (minimum inhibitory concentration for 90% of strains tested) ([2]; n = 53 strains): <0.1 µg/mL; MIC90 (minimum inhibitory concentration for 90% of strains tested) ([3]; MRSE and other coagulase-negative staphylococci, n = 34 strains): <0.1 µg/mL; ED50 (dose required to produce 50% of the maximum reduction in thigh titre) (MRSA 33591 [4]): < 0.20 mg/kg"
"CNC(CC(C)C)C(=O)NC1C(=O)NC(CC(N)=O)C(=O)NC2C(=O)NC3C(=O)NC(C(=O)NC(C(=O)NCCCON=C(C(=O)NC4C(=O)N5C(C(=O)[O-])=C(C[n+]6ccccc6)CSC45)c4csc(N)n4)c4cc(O)cc(O)c4-c4cc3ccc4O)C(O)c3ccc(c(Cl)c3)Oc3cc2cc(c3OC2OC(CO)C(O)C(O)C2OC2CC(C)(N)C(O)C(C)O2)Oc2ccc(cc2Cl)C1O (centres unmarked) [Compound 34, reference compound]",0.17 µg/mL,0.29 µg/mL,0.32 µg/mL,0.29 µg/mL,0.49 µg/mL,0.34 µg/mL,0.18 µg/mL,0.20 µg/mL,0.58,0.34 µg/mL,0.49,<0.1 µg/mL,
